Target: T1, Recombinant human renin (Homo sapiens, UniProt P00797)
T1 construct: isolate the active form (residues 67-406); made in house; host or cells: FreeStyle 293-F cells (transient expression of pcDNA3.1(+)/hREN)
T1 sequence (P00797 67-406): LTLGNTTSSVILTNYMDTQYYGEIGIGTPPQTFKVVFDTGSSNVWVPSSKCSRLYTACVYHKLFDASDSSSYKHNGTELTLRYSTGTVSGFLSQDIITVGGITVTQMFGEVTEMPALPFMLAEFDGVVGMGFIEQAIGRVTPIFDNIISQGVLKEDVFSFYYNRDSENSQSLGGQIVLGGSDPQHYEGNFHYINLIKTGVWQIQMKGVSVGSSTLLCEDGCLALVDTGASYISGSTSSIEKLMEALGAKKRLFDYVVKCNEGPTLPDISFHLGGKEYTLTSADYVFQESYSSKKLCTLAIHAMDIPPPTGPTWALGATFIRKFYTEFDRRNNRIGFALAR
Assay: In vitro enzymatic activity assay of renin inhibitors (fluorogenic peptide substrate)
Format: biochemical
Settings: read-out: IC50 of Exemplified Compounds Against Renin
Outline: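 Recombinant human renin (3 nM final) pre-incubated 10 min at 37 °C with compounds in pH 7.4 Hepes/EDTA/DTT/0.1 mg/mL BSA/Brij35 buffer (optionally plus 2% BSA), 5% DMSO final; fluorogenic QXL520/HiLyteFluo488 peptide substrate added.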

IC50 [nM] | SMILES
< 100 | COCCCn1c([C@@H]2CCCN(C(=O)C[C@H](N)Cc3ccc(-c4ccc(C(=O)NCCOC)cc4Cl)cc3)C2)nc2ccccc21 [Compound 193, 4′-((R)-2-amino-4-((R)-3-(1-(3-methoxypropyl)-1H-benzo[d]imidazol-2-yl)piperidin-1-yl)-4-oxobutyl)-2-chloro-N-(2-methoxyethyl)biphenyl-4-carboxamide]
100 to 1000 | COCCCn1c([C@@H]2CCCN(C(=O)C[C@H](N)CNS(=O)(=O)c3ccccc3Cl)C2)nc2ccccc21 [Compound 306, N-((S)-2-amino-4-((R)-3-(1-(3-methoxypropyl)-1H-benzo[d]imidazol-2-yl)piperidin-1-yl)-4-oxobutyl)-2-chlorobenzenesulfonamide]
> 1000 | N[C@@H](CC(=O)N1CCCC(c2nc3ccccc3[nH]2)C1)c1ccc([N+](=O)[O-])cc1 (stereo partly drawn) [Compound 33, (3S)-1-(3-(1H-benzo[d]imidazol-2-yl)piperidin-1-yl)-3-amino-3-(4-nitrophenyl)propan-1-one]
> 1000 | COCCCn1c([C@@H]2CCCN(C(=O)[C@@H]3CN(C(=O)CC4CCCCC4)C[C@H]3N)C2)nc2ccccc21 [Compound 397, l-((3S,4R)-3-amino-4-((R)-3-(1-(3-methoxypropyl)-1H-benzo[d]imidazol-2-yl)piperidine-1-carbonyl)pyrrolidin-1-yl)-2-cyclohexylethanone]
< 100 | COCCCn1c([C@@H]2CCCN(C(=O)C[C@H](N)Cc3ccc(-c4ccc5nccn5c4)cc3)C2)nc2ccccc21 [Compound 139, (R)-3-amino-4-(4-(imidazo[1,2-a]pyridin-6-yl)phenyl)-1-((R)-3-(1-(3-methoxypropyl)-1H-benzo[d]imidazol-2-yl)piperidin-1-yl)butan-1-one]
> 1000 | COCCCn1c([C@H]2CCCN(C(=O)C[C@@H](N)Cc3ccc(Cl)cc3)C2)nc2ccccc21 [Compound 70, (S)-3-amino-4-(4-chlorophenyl)-1-((S)-3-(1-(3-methoxypropyl)-1H-benzo[d]imidazol-2-yl)piperidin-1-yl)butan-1-one]
100 to 1000 | COCCCn1c([C@@H]2CCCN(C(=O)C[C@H](N)CNC(=O)CC3CCCCC3)C2)nc2ccccc21 [Compound 319, N-((S)-2-amino-4-((R)-3-(1-(3-methoxypropyl)-1H-benzo[d]imidazol-2-yl)piperidin-1-yl)-4-oxobutyl)-2-cyclohexylacetamide]
> 1000 | CC[C@H](C)[C@H](N)C(=O)N1CCCC(c2nc3ccccc3[nH]2)C1 (stereo partly drawn) [Compound 48, (2S,3S)-1-(3-(1H-benzo[d]imidazol-2-yl)piperidin-1-yl)-2-amino-3-methylpentan-1-one]
> 1000 | O=C(C1CCCNC1)N1CCCC(c2nc3ccccc3[nH]2)C1 (stereo not shown) [Compound 52, (3-(1H-benzo[d]imidazol-2-yl)piperidin-1-yl)(piperidin-3-yl)methanone]
100 to 1000 | COCCCn1c([C@@H]2CCCN(C(=O)[C@@H]3CN(S(=O)(=O)c4cccc(F)c4)C[C@H]3N)C2)nc2ccccc21 [Compound 428, ((3R,4S)-4-amino-1-(3-fluorophenylsulfonyl)pyrrolidin-3-yl)((R)-3-(1-(3-methoxypropyl)-1H-benzo[d]imidazol-2-yl)piperidin-1-yl)methanone]
100 to 1000 | COCCCn1c([C@@H]2CCCN(C(=O)C[C@H](N)Cc3ccc(N4CCC(CO)CC4)cc3)C2)nc2ccccc21 [Compound 235, (R)-3-amino-4-(4-(4-(hydroxymethyl)piperidin-1-yl)phenyl)-1-((R)-3-(1-(3-methoxypropyl)-1H-benzo[d]imidazol-2-yl)piperidin-1-yl)butan-1-one]
< 100 | COCCCn1c([C@@H]2CCCN(C(=O)C[C@H](N)Cc3ccc(-c4ccc5c(c4)OCC(=O)N5)cc3)C2)nc2c(F)cccc21 [Compound 443, 7-(4-((R)-2-amino-4-((R)-3-(4-fluoro-1-(3-methoxypropyl)-1H-benzo[d]imidazol-2-yl)piperidin-1-yl)-4-oxobutyl)phenyl)-2H-benzo[b][1,4]oxazin-3(4H)-one]
< 100 | COCCCn1c([C@@H]2CCCN(C(=O)C[C@H](N)Cc3ccc(-c4c[nH]c(=O)[nH]c4=O)cc3)C2)nc2ccccc21 [Compound 169, 5-(4-((R)-2-amino-4-((R)-3-(1-(3-methoxypropyl)-1H-benzo[d]imidazol-2-yl)piperidin-1-yl)-4-oxobutyl)phenyl)pyrimidine-2,4(1H,3H)-dione]
100 to 1000 | CC(=O)NCCn1c([C@@H]2CCCN(C(=O)C[C@H](N)Cc3ccc(-c4ccc5oc(=O)[nH]c5c4)cc3)C2)nc2ccccc21 [Compound 467, N-(2-(2-((R)-1-((R)-3-amino-4-(4-(2-oxo-2,3-dihydrobenzo[d]oxazol-5-yl)phenyl)butanoyl)piperidin-3-yl)-1H-benzo[d]imidazol-1-yl)ethyl)acetamide]
> 1000 | O=C(Nc1ccccc1)N1CCCC(c2nc3ccccc3[nH]2)C1 (stereo not shown) [Compound 8, 3-(1H-benzo[d]imidazol-2-yl)-N-phenylpiperidine-1-carboxamide]
100 to 1000 | COCCCn1c([C@@H]2CCCN(C(=O)C[C@H](N)CNC(=O)c3ccc(-c4cc(Cl)cc(Cl)c4)o3)C2)nc2ccccc21 [Compound 295, N-((S)-2-amino-4-((R)-3-(1-(3-methoxypropyl)-1H-benzo[d]imidazol-2-yl)piperidin-1-yl)-4-oxobutyl)-5-(3,5-dichlorophenyl)furan-2-carboxamide]
> 1000 | O=C([C@H]1CCCN1)N1CCCC(c2nc3ccccc3[nH]2)C1 (stereo partly drawn) [Compound 54, (3-(1H-benzo[d]imidazol-2-yl)piperidin-1-yl)((R)-pyrrolidin-2-yl)methanone]
< 100 | COCCCn1c([C@@H]2CCCN(C(=O)C[C@H](N)Cc3ccc(-c4ccccc4)cc3)C2)nc2cccc(Cl)c21 [Compound 98, (R)-3-amino-4-(biphenyl-4-yl)-1-((R)-3-(7-chloro-1-(3-methoxypropyl)-1H-benzo[d]imidazol-2-yl)piperidin-1-yl)butan-1-one]
< 100 | COCCCn1c([C@@H]2CCCN(C(=O)C[C@H](N)Cc3ccc(-c4ccc(N5CCNC5=O)cc4)cc3)C2)nc2c(F)cccc21 [Compound 441, 1-(4′-((R)-2-amino-4-((R)-3-(4-fluoro-1-(3-methoxypropyl)-1H-benzo[d]imidazol-2-yl)piperidin-l-yl)-4-oxobutyl)biphenyl-4-yl)imidazolidin-2-one]
> 1000 | COCCCn1c([C@@H]2CCCN(C(=O)C[C@H](N)CNC(=O)Nc3ccccc3C(=O)OC)C2)nc2ccccc21 [Compound 329, methyl 2-(3-((S)-2-amino-4-((R)-3-(1-(3-methoxypropyl)-1H-benzo[d]imidazol-2-yl)piperidin-1-yl)-4-oxobutyl)ureido)benzoate]
> 1000 | Cc1cc(C)cc(NC(=O)N2CCCC(c3nc4ccccc4[nH]3)C2)c1 (stereo not shown) [Compound 6, 3-(1H-benzo[d]imidazol-2-yl)-N-(3,5-dimethylphenyl)piperidine-1-carboxamide]
100 to 1000 | COCCCn1c([C@@H]2CCCN(C(=O)C[C@H](N)Cc3ccc(N4CCCC4=O)cc3)C2)nc2ccccc21 [Compound 209, 1-(4-((R)-2-amino-4-((R)-3-(1-(3-methoxypropyl)-1H-benzo[d]imidazol-2-yl)piperidin-1-yl)-4-oxobutyl)phenyl)pyrrolidin-2-one]

From patent US8138168B1 (Takeda Pharmaceutical Company Limited, priority 2007, dated 2012)
